Results taken from patent publication EP0041644B1 (priority 1980, dated 1981).
Marks after values point to notes of the source that are not given here.

What was measured:
L-1210 Leukemia = L-1210 Leukemia (Table VIII)
Experimental: The sodium and ammonium salts of the present invention were tested against transplantable mouse tumors as indicated below. The methodology used generally followed the protocols of the National Cancer Institute (Cancer Chemotherapy Rep., Part 3, 3, 1-103 (1972). The essential experimental details are given at the bottom of the following tables.

L1210 Leukemia [1] = experiment: L1210 Leukemia - Test 3 (vehicle comparison); format: in vivo, mice; conditions: Day 1 only, vehicle CMC + saline
Lewis Lung Carcinoma = Lewis Lung Carcinoma - Test 1 (ip, delayed therapy); format: in vivo, mice
B16 Melanoma [2] = experiment: B16 Melanoma - Test 3 (sc trocar fragments); format: in vivo, mice; conditions: for Effect MST %TC / MST Days: qd 1→9
B16 Melanoma [3] = experiment: B16 Melanoma - Test 1 (ip tumor brei); format: in vivo, mice; conditions: for Effect MST % T/C / MST Days: QD 1→9, vehicle CMC + H2O
L1210 Leukemia [4] = experiment: L1210 Leukemia - Test 1 (survival of tumor-bearing mice); format: in vivo; conditions: d. 1 only
Description: This evaluation of the ammonium salt finds the drug to be active against L1210 (ip) leukemia when administered ip one day post-implant of 10^6 L1210 cells (maximum T/C was 164%). […] The vehicle for the ammonium salt was water.

B16 Melanoma [5] = experiment: B16 Melanoma - Test 2 (ip tumor brei); format: in vivo, mice; conditions: QD +9

O=C1[O][Pt]2([NH]C3CCCCC3[NH]2)[O]C(=O)C1[O-].[Na+] (centres unmarked) [Example 6, 2-Hydroxymalonato(1,2-diaminocyclohexane)platinum (II), sodium salt]
Average Weight Change (L-1210 Leukemia; 6 mg/kg/inj ip, qd 1→9): -0.9 g | Effect MST % T/C (L-1210 Leukemia; 6 mg/kg/inj ip, qd 1→9): 192 % T/C | MST Days (L-1210 Leukemia; 6 mg/kg/inj ip, qd 1→9): 11.5 days | Survivors Day 5(30) (L-1210 Leukemia; 6 mg/kg/inj ip, qd 1→9): 6/6 | Average Weight Change (L-1210 Leukemia; 12 mg/kg/inj ip, qd 1→9): -2.3 g | Effect MST % T/C (L-1210 Leukemia; 12 mg/kg/inj ip, qd 1→9): 233 % T/C | MST Days (L-1210 Leukemia; 12 mg/kg/inj ip, qd 1→9): 14.0 days | Survivors Day 5(30) (L-1210 Leukemia; 12 mg/kg/inj ip, qd 1→9): 6/6 | Average Weight Change (L-1210 Leukemia; 24 mg/kg/inj ip, qd 1→9): -2.4 g | Effect MST % T/C (L-1210 Leukemia; 24 mg/kg/inj ip, qd 1→9): 342 % T/C | MST Days (L-1210 Leukemia; 24 mg/kg/inj ip, qd 1→9): 20.5 days | Survivors Day 5(30) (L-1210 Leukemia; 24 mg/kg/inj ip, qd 1→9): 4/6 | Average Weight Change (L-1210 Leukemia; 25 mg/kg/inj ip, d.1): -0.8 g | Effect MST % T/C (L-1210 Leukemia; 25 mg/kg/inj ip, d.1): 183 % T/C | MST Days (L-1210 Leukemia; 25 mg/kg/inj ip, d.1): 11.0 days | Survivors Day 5(30) (L-1210 Leukemia; 25 mg/kg/inj ip, d.1): 6/6 | Average Weight Change (L-1210 Leukemia; 48 mg/kg/inj ip, qd 1→9): -3.3 g | Effect MST % T/C (L-1210 Leukemia; 48 mg/kg/inj ip, qd 1→9): 100 % T/C | MST Days (L-1210 Leukemia; 48 mg/kg/inj ip, qd 1→9): 6.0 days | Survivors Day 5(30) (L-1210 Leukemia; 48 mg/kg/inj ip, qd 1→9): 5/6 | Average Weight Change (L-1210 Leukemia; 50 mg/kg/inj ip, d.1): -1.2 g | Effect MST % T/C (L-1210 Leukemia; 50 mg/kg/inj ip, d.1): 208 % T/C | MST Days (L-1210 Leukemia; 50 mg/kg/inj ip, d.1): 12.5 days | Survivors Day 5(30) (L-1210 Leukemia; 50 mg/kg/inj ip, d.1): 6/6 | Average Weight Change,g (L-1210 Leukemia; 100 mg/kg/inj ip, d.1): +2.6 g | Effect MST % T/C (L-1210 Leukemia; 100 mg/kg/inj ip, d.1): 217 % T/C | MST Days (L-1210 Leukemia; 100 mg/kg/inj ip, d.1): 13.0 days | Survivors Day 5(30) (L-1210 Leukemia; 100 mg/kg/inj ip, d.1): 6/6 | lethality (L-1210 Leukemia; 200 mg/kg, single ip injection): lethal | Average Weight Change,g (L-1210 Leukemia; 200 mg/kg/inj ip, d.1): TOX | Effect MST % T/C (L-1210 Leukemia; 200 mg/kg/inj ip, d.1): TOX | MST Days (L-1210 Leukemia; 200 mg/kg/inj ip, d.1): TOX | Survivors Day 5(30) (L-1210 Leukemia; 200 mg/kg/inj ip, d.1): 1/6 | T/C (L-1210 Leukemia; qd 1→9, 12 mg/kg/inj): 233% | T/C (L-1210 Leukemia; qd 1→9, 24 mg/kg/injection): 342% | maximum T/C (L-1210 Leukemia; single ip injections): 217% | optimal doses (L-1210 Leukemia; single ip injections, dose of maximum T/C): 100 mg/kg

[NH2][Pt]1([NH2])[O]C(=O)C(O)C(=O)[O]1 [2-Hydroxymalonato diammine platinum (II), 2-hydroxymalonato diammine platinum (II)]
Effect MST % T/C (L1210 Leukemia [1]; 40 mg/kg ip): 114 % T/C | MST Days (L1210 Leukemia [1]; 40 mg/kg ip): 8.0 days | Effect MST % T/C (L1210 Leukemia [1]; 60 mg/kg ip): 143 % T/C | MST Days (L1210 Leukemia [1]; 60 mg/kg ip): 10.0 days | Effect MST % T/C (L1210 Leukemia [1]; 80 mg/kg ip): 129 % T/C | MST Days (L1210 Leukemia [1]; 80 mg/kg ip): 9.0 days | Effect MST % T/C (L1210 Leukemia [1]; 100 mg/kg ip): 100 % T/C | MST Days (L1210 Leukemia [1]; 100 mg/kg ip): 7.0 days | Effect MST %TC (Lewis Lung Carcinoma; 8 mg/kg/inj ip, qd 5→13): 112 %TC | MST Days (Lewis Lung Carcinoma; 8 mg/kg/inj ip, qd 5→13): 14.0 days | Effect MST %TC (Lewis Lung Carcinoma; 12 mg/kg/inj ip, qd 5→13): 168 %TC | MST Days (Lewis Lung Carcinoma; 12 mg/kg/inj ip, qd 5→13): 21.0 days | Effect MST %TC (Lewis Lung Carcinoma; 16 mg/kg/inj ip, qd 5→13): 176 %TC | MST Days (Lewis Lung Carcinoma; 16 mg/kg/inj ip, qd 5→13): 22.0 days | Effect MST %TC (Lewis Lung Carcinoma; 20 mg/kg/inj ip, d. 5,9&13): 100 %TC | MST Days (Lewis Lung Carcinoma; 20 mg/kg/inj ip, d. 5,9&13): 12.5 days | Effect MST %TC (Lewis Lung Carcinoma; 24 mg/kg/inj ip, qd 5→13): 220 %TC | MST Days (Lewis Lung Carcinoma; 24 mg/kg/inj ip, qd 5→13): 27.5 days | Effect MST %TC (Lewis Lung Carcinoma; 40 mg/kg/inj ip, d. 5,9&13): 120 %TC | MST Days (Lewis Lung Carcinoma; 40 mg/kg/inj ip, d. 5,9&13): 15.0 days | Effect MST %TC (Lewis Lung Carcinoma; 60 mg/kg/inj ip, d. 5,9&13): 156 %TC | MST Days (Lewis Lung Carcinoma; 60 mg/kg/inj ip, d. 5,9&13): 19.5 days | Effect MST %TC (Lewis Lung Carcinoma; 80 mg/kg/inj ip, d. 5,9&13): 152 %TC | MST Days (Lewis Lung Carcinoma; 80 mg/kg/inj ip, d. 5,9&13): 19.0 days | Survivors Day 9(48) (Lewis Lung Carcinoma; Day 48 (figure in parentheses), 60 mg/kg/inj ip, d. 5,9&13): 1 | maximum T/C (Lewis Lung Carcinoma; given ip, therapy from day 5): 220% | Survivors Day 9(48) (Lewis Lung Carcinoma; mouse, in vivo, ip, 8 mg/kg): 6/6 | Survivors Day 9(48) (Lewis Lung Carcinoma; mouse, in vivo, ip, 12 mg/kg): 6/6 | Survivors Day 9(48) (Lewis Lung Carcinoma; mouse, in vivo, ip, 16 mg/kg): 6/6 | Survivors Day 9(48) (Lewis Lung Carcinoma; mouse, in vivo, ip, 20 mg/kg): 6/6 | Survivors Day 9(48) (Lewis Lung Carcinoma; mouse, in vivo, ip, 24 mg/kg): 6/6 | Survivors Day 9(48) (Lewis Lung Carcinoma; mouse, in vivo, ip, 40 mg/kg): 6/6 | Survivors Day 9(48) (Lewis Lung Carcinoma; mouse, in vivo, ip, 60 mg/kg): 6/6 | Survivors Day 9(48) (Lewis Lung Carcinoma; mouse, in vivo, ip, 80 mg/kg): 6/6 | Effect MST %TC (B16 Melanoma [2]; 8 mg/kg/inj ip): 131 %TC | MST Days (B16 Melanoma [2]; 8 mg/kg/inj ip): 40.0 days | Effect MST %TC (B16 Melanoma [2]; 12 mg/kg/inj ip): 115 %TC | MST Days (B16 Melanoma [2]; 12 mg/kg/inj ip): 35.0 days | Effect MST %TC (B16 Melanoma [2]; 16 mg/kg/inj ip): 48 %TC | MST Days (B16 Melanoma [2]; 16 mg/kg/inj ip): 14.5 days | Effect MST %TC (B16 Melanoma [2]; 24 mg/kg/inj ip): TOX | MST Days (B16 Melanoma [2]; 24 mg/kg/inj ip): TOX | T/C (B16 Melanoma [2]; given ip, sc-implanted B16 melanoma): 131% | Effect MST % T/C (B16 Melanoma [3]; 2 mg/kg/day ip): 133 % T/C | MST Days (B16 Melanoma [3]; 2 mg/kg/day ip): 26.0 days | Effect MST % T/C (B16 Melanoma [3]; 4 mg/kg/day ip): 187 % T/C | MST Days (B16 Melanoma [3]; 4 mg/kg/day ip): 36.5 days | Effect MST % T/C (B16 Melanoma [3]; 8 mg/kg/day ip): 177 % T/C | MST Days (B16 Melanoma [3]; 8 mg/kg/day ip): 34.5 days | Effect MST % T/C (B16 Melanoma [3]; 16 mg/kg/day ip): >308* % T/C | MST Days (B16 Melanoma [3]; 16 mg/kg/day ip): >60.0* Days | Effect MST % T/C (B16 Melanoma [3]; 24 mg/kg/day ip): 54 % T/C | MST Days (B16 Melanoma [3]; 24 mg/kg/day ip): 10.5 days | Effect MST % T/C (B16 Melanoma [3]; 32 mg/kg/day ip): 38 % T/C | MST Days (B16 Melanoma [3]; 32 mg/kg/day ip): 7.5 days | maximum T/C (B16 Melanoma [3]; ip B16, ip QD 1→9): > 308% | Effect MST % T/C (L1210 Leukemia [4]; 20 mg/kg/day ip): 143 % T/C | MST Days (L1210 Leukemia [4]; 20 mg/kg/day ip): 10.0 days | Effect MST % T/C (L1210 Leukemia [4]; 40 mg/kg/day ip): 143 % T/C | MST Days (L1210 Leukemia [4]; 40 mg/kg/day ip): 10.0 days | Effect MST % T/C (L1210 Leukemia [4]; 60 mg/kg/day ip): 157 % T/C | MST Days (L1210 Leukemia [4]; 60 mg/kg/day ip): 11.0 days | Effect MST % T/C (L1210 Leukemia [4]; 80 mg/kg/day ip): 171 % T/C | MST Days (L1210 Leukemia [4]; 80 mg/kg/day ip): 12.0 days | Average Weight Change (B16 Melanoma [5]; 2 mg/kg/day ip): -1.1 g | Effect MST % T/C (B16 Melanoma [5]; 2 mg/kg/day ip): 182 % T/C | MST Days (B16 Melanoma [5]; 2 mg/kg/day ip): 37.5 days | Average Weight Change (B16 Melanoma [5]; 4 mg/kg/day ip): -1.1 g | Effect MST % T/C (B16 Melanoma [5]; 4 mg/kg/day ip): 163 % T/C | MST Days (B16 Melanoma [5]; 4 mg/kg/day ip): 33.5 days | Average Weight Change (B16 Melanoma [5]; 8 mg/kg/day ip): -2.1 g | Effect MST % T/C (B16 Melanoma [5]; 8 mg/kg/day ip): 190 % T/C | MST Days (B16 Melanoma [5]; 8 mg/kg/day ip): 39.0 days | Average Weight Change (B16 Melanoma [5]; 16 mg/kg/day ip): -2.3 g | Effect MST % T/C (B16 Melanoma [5]; 16 mg/kg/day ip): >293^a % T/C | MST Days (B16 Melanoma [5]; 16 mg/kg/day ip): >60.0^a Days
